In ChEMBL document CHEMBL5050844 (2019):

Tests used:
Assay type in all cases: functional, T cell line
[1] = Induction of anti-CD3/CD28 antibodies-stimulated human T cell activation at 4 uM assessed fold increase in IL-2 secretion measured by ELISA assay
[2] = Induction of anti-CD3/CD28 antibodies-stimulated human T cell activation at 1 uM assessed fold increase in IL-2 secretion measured by ELISA assay
[3] = Induction of anti-CD3/CD28 antibodies-stimulated human T cell activation at 0.3 uM assessed fold increase in IL-2 secretion measured by ELISA assay
[4] = Induction of anti-CD3 antibodies-stimulated human T cell activation at 8 uM assessed fold increase in IL-2 secretion measured by ELISA assay; note: reference of the scale not given here
[5] = Induction of anti-CD3 antibodies-stimulated human T cell activation at 1 uM assessed fold increase in IL-2 secretion measured by ELISA assay; note: reference of the scale not given here
[6] = Induction of anti-CD3/CD28 antibodies-stimulated human T cell activation at 4 uM assessed fold increase in CD25 expression measured by ELISA assay
[7] = Induction of anti-CD3/CD28 antibodies-stimulated human T cell activation at 1 uM assessed fold increase in CD25 expression measured by ELISA assay
[8] = Induction of anti-CD3/CD28 antibodies-stimulated human T cell activation at 0.3 uM assessed fold increase in CD25 expression measured by ELISA assay
[9] = Induction of anti-CD3 antibodies-stimulated human T cell activation at 8 uM assessed fold increase in CD25 expression measured by ELISA assay; note: reference of the scale not given here
[10] = Induction of anti-CD3 antibodies-stimulated human T cell activation at 1 uM assessed fold increase in CD25 expression measured by ELISA assay; note: reference of the scale not given here

SMILES	fold change (FC) [1]	fold change (FC) [2]	fold change (FC) [3]	fold change (FC) [4]	fold change (FC) [5]	fold change (FC) [6]	fold change (FC) [7]	fold change (FC) [8]	fold change (FC) [9]	fold change (FC) [10]
C[C@H](Cc1nncn1C)c1cccc(NC(=O)c2cc(S(N)(=O)=O)cc(C(F)(F)F)n2)c1	1.01	<=1	<=1	0.051	<=0.05	1.01	1.01	1.01	>=1.001	0.801
C[C@H](Cc1nncn1C)c1cccc(N2Cc3c(cc([C@@H]4CCCNC4)cc3C(F)(F)F)C2=O)c1	5	5	2.51	>=0.201	0.101	1.51	1.31	1.01	>=1.001	0.601
C[C@H](Cc1nncn1C)c1cccc(N2Cc3c(ccnc3C(F)(F)F)C2=O)c1	5	2.51	1.01	>=0.201	0.101	1.01	1.01	1.01	>=1.001	0.801
C[C@H](Sc1nncn1C)c1cccc(NC(=O)c2cc3c(Cl)cccc3[nH]2)c1	2.51	1.01	1.01	>=0.201	<=0.05	1.01	1.01	<=1	0.801	0.601
C[C@H](Cc1nnc[nH]1)c1cccc(N2Cc3c(cccc3C(F)(F)F)C2=O)c1	1.01	<=1	<=1	<=0.05	<=0.05	1.31	1.31	1.01	<=0.6	<=0.6
Cc1cc(C(=O)Nc2cccc([C@H](C)Cc3nncs3)c2)nc(C2CC2)n1	5	2.51	1.01	>=0.201	0.101	1.01	1.01	1.01	0.801	0.601
C[C@H](Cc1nncn1C1CC1)c1cccc(N2Cc3c(cccc3C(F)(F)F)C2=O)c1	1.01	1.01	<=1	<=0.05	<=0.05	1.01	1.01	1.01	0.801	0.601
Cc1cnnn1C[C@@H](C)c1cccc(NC(=O)c2cccc(C(F)(F)F)n2)c1	2.51	1.01	1.01	0.151	0.051	1.01	1.01	<=1	0.801	0.601
C[C@H](Cc1nncn1C)c1cc(OCCO)nc(N2Cc3c(cccc3C(F)(F)F)C2=O)c1	2.51	1.01	1.01	>=0.201	0.051	1.31	1.01	1.01	>=1.001	0.601
Cc1conc1C[C@@H](C)c1cccc(N2Cc3c(cccc3C(F)(F)F)C2=O)c1	1.01	<=1	<=1	0.151	0.051	1.01	<=1	1.01	0.801	0.601
CC1OCC1Oc1cc([C@H](C)Cc2nncn2C)cc(N2Cc3c(cccc3C(F)(F)F)C2=O)n1 (stereo not given in full)	1.01	1.01	1.01	0.101	0.051	1.01	1.01	1.01	0.601	0.601
CC(Cc1nncn1C)c1cc(N[C@@H]2CCOC2)nc(N2Cc3c(cccc3C(F)(F)F)C2=O)c1 (single isomer, unassigned)	1.01	1.01	1.01	0.101	0.051	1.01	1.01	<=1	0.801	0.601
Cn1cnnc1C(F)(F)[C@](C)(F)c1cccc(N2Cc3c(cc(-c4cncc(F)c4)cc3C(F)(F)F)C2=O)c1	2.51	2.51	1.01	0.151	0.101	1.01	1.01	<=1	0.801	0.601
Cc1cc(C(=O)Nc2cccc([C@H](C)Cc3nncn3C)c2)nc2ccnn12	5	1.01	1.01	>=0.201	0.101	1.31	1.01	1.01	>=1.001	0.601
C[C@H](Sc1nncn1C)c1cccc(N2Cc3c(ccnc3Cl)C2=O)c1	2.51	<=1	1.01	0.101	<=0.05	>=1.76	1.01	1.51	0.601	<=0.6
Cc1cc(C(=O)Nc2cccc([C@H]3C[C@H]3c3nncn3C)c2)nc(C2CC2)n1	5	2.51	1.01	>=0.201	0.101	1.01	1.01	1.01	>=1.001	0.801
C[C@H](Sc1nncn1C)c1cccc(NC(=O)c2cc3ccccc3cn2)c1	1.01	1.01	1.01	0.051	<=0.05	1.01	1.01	1.01	<=0.6	<=0.6
COc1cc(C(=O)Nc2cccc([C@H](C)Cc3nncn3C)c2)nc(C(F)(F)F)c1	1.01	1.01	1.01	0.101	0.101	1.01	1.01	1.01	0.801	0.801
C[C@H](Cc1nncn1C)c1cccc(NC(=O)c2cc(C(=O)N3C[C@@H](O)[C@H](F)C3)ccn2)c1	2.51	1.01	<=1	>=0.201	0.151	1.31	1.01	<=1	0.801	0.601
C[C@H](Sc1nncn1C)c1cccc(NC(=O)c2cncc(C(F)(F)F)n2)c1	1.01	1.01	<=1	<=0.05	<=0.05	1.01	1.01	<=1	0.601	<=0.6
Cc1nc2cc([C@H](C)Sc3nncn3C)cc(NC(=O)c3cccc(C(F)(F)F)n3)c2o1	>=7.5	5	2.51	>=0.201	<=0.05	>=1.76	1.51	1.31	>=1.001	0.601
Cc1ccc(C(=O)Nc2cccc([C@H](C)Sc3nncn3C)c2)nc1C(F)(F)F	1.01	<=1	<=1	<=0.05	<=0.05	1.01	1.01	<=1	>=1.001	0.601
